The test system of data set [1] is LPS-induced secretion of TNFα in human PBMCs. In words: LPS-induced secretion of TNFα in human PBMCs. In kind it is cell-based. The conditions noted are these: Homo sapiens, PBMC, 24 h, LPS 10 ng/ml. Summed up:
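PBMCs isolated by Lymphoprep density centrifugation were seeded at 5×10^4/well in RPMI1640 + 10% FBS and given compound, with 30 min pre-incubation, then stimulated with 10 ng/ml LPS (final). After 24 h, supernatant TNF-α was measured by ELISA kit.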

The nature of data set [2]: Pharmacokinetic test in canine. It is filed as in vivo, beagle dogs. The conditions noted are these: male, beagle, dog, plasma, oral gavage 5 mg/kg. As for the experimental part:
(§1) In the rat pharmacokinetic test, 3 male SD rats (180-240 g) were fasted overnight, and orally administered with 10 mg/kg of compound to be tested. Blood was collected before the administration, and 15 min, 30 min, 1 h, 2 h, 4 h, 8 h, and 24 h hours after the administration. The blood sample was centrifuged at 8000 rpm for 6 min at 4° C., and the plasma was collected and stored at −20° C. The plasma collected at each time point was added and mixed with 3-5 times the amount of acetonitrile solution containing an internal standard, vortexed for 1 min, centrifuged at 13,000 rpm for 10 min at 4° C. The supernatant was taken and mixed with 3 times the amount of water, and an appropriate amount of the mixture was taken for LC-MS/MS analysis. The main pharmacokinetic parameters were analyzed with WinNonlin 7.0 software non-compartmental model.
(§2) In the mouse pharmacokinetic test, 9 male CD-1 mice (20-25 g) were fasted overnight, and orally administered with 10 mg/kg of the compound to be tested. Bloods of 3 mice were collected at each time point, and bloods of 9 mice were alternately collected in total. In the pharmacokinetic test in canine, 3 male beagle dogs (8-10 kg) were fasted overnight, and orally administered with 5 mg/kg of the compound to be test. In the pharmacokinetic test of cynomolgus monkeys, 3 male cynomolgus monkeys (4 to 6.5 kg) were fasted overnight, and orally administered 20 mg/kg of the compound to be test. The remaining processes are the same as those of the rat pharmacokinetic test.

Data set [3] in a line: Mouse pharmacokinetic test. The conditions noted are these: male, CD-1, plasma, oral gavage 10 mg/kg. In kind it is in vivo, CD-1 mice. The method, then:
as §1, §2

The nature of data set [4]: Pharmacokinetic test of cynomolgus monkeys. It is filed as in vivo. The settings on record: male, plasma; cynomolgus monkey, oral gavage 20 mg/kg. As for the experimental part:
as §1, §2

SMILES strings stand for the structures.

One may read the IC50 as the concentration that gives 50% inhibition. A higher IC50 goes with a need for much substance. As a reminder, the AUC(0-t) is exposure summed from dosing to a finite time, without extrapolation to infinity. Low values mean less exposure, high ones more exposure. Usually Cmax stands for the highest concentration seen after dosing. A word on the Tmax: it is the time from dosing to the highest level. Regarding `COc1ccc([C@@H]2CN(C(=O)[C@@H](O)CO)C[C@@]2(C)[C@@H](C)O)cc1OC1CN(c2ncc(C)cc2F)C1` [Compound 004, (S)-1-((3S,4S)-4-(3-((1-(3-fluoro-5-methylpyridin-2-yl)azetidin-3-yl)oxy)-4-methoxyphenyl)-3-((R)-1-hydroxyethyl)-3-methylpyrrolidin-1-yl)-2,3-dihydroxypropan-1-one], in data set [1], the concentration for half-maximal inhibition (IC50) was 5.13 nM. Besides, in data set [2], the exposure AUC(0-t) amounted to 1.74 µg·h/mL, the Cmax was determined as 0.484 µg/mL and the time of peak concentration (Tmax) turned out to be 49.8 min. Besides, in data set [3], the exposure AUC(0-t) was 0.896 µg·h/mL, the concentration peaked (Cmax) at 0.378 µg/mL and the Tmax came to 30 min.

For `COc1ccc([C@@H]2CN(C(=O)[C@@H](O)CO)C[C@@]2(C)[C@@H](C)O)cc1OC1CN(c2ccc(Cl)c(C)n2)C1` [Compound 011, (S)-1-((3S,4S)-4-(3-((1-(5-chloro-6-methylpyridin-2-yl)azetidin-3-yl)oxy)-4-methoxyphenyl)-3-((R)-1-hydroxyethyl)-3-methylpyrrolidin-1-yl)-2,3-dihydroxypropan-1-one], the concentration for half-maximal inhibition (IC50) in data set [1] amounted to 1.55 nM. Also, in data set [2], the exposure AUC(0-t) amounted to 1.42 µg·h/mL, the peak level (Cmax) was 0.356 µg/mL and the time of peak concentration (Tmax) was determined as 49.8 min. Further, in data set [3], the AUC(0-t) came to 1.05 µg·h/mL, the concentration peaked (Cmax) at 0.316 µg/mL and the time of peak concentration (Tmax) stood at 30 min.

Regarding `COc1ccc([C@@H]2CN(C(=O)[C@@H](O)CO)C[C@@]2(C)[C@@H](C)O)cc1OC1CN(c2ccc(C)cn2)C1` [Positive control compound, reference compound], the area under the curve AUC(0-t) in data set [4] was 3.64 µg·h/mL; in data set [2], 0.423 µg·h/mL; in data set [3], 0.237 µg·h/mL. Besides, the values for the maximum concentration (Cmax) in data set [4], in data set [2] and in data set [3] were 0.565 µg/mL, 0.159 µg/mL and 0.142 µg/mL, respectively. Besides, the Tmax was 90 min in data set [4], 55.2 min in data set [2] and 15 min in data set [3]. In data set [1], this compound had a half-maximal inhibitory concentration (IC50) of 3.32 nM.

Consider `COc1ccc([C@@H]2CN(C(=O)[C@@H](O)CO)C[C@@]2(C)[C@@H](C)O)cc1OC1CN(c2ccc(C)c(C)n2)C1` [Compound 007, (S)-1-((3S,4S)-4-(3-((1-(5,6-dimethylpyridin-2-yl)azetidin-3-yl)oxy)-4-methoxyphenyl)-3-((R)-1-hydroxyethyl)-3-methylpyrrolidin-1-yl)-2,3-dihydroxypropan-1-one], for which, in data set [4], the AUC(0-t) came out at 44.4 µg·h/mL, the concentration peaked (Cmax) at 13.8 µg/mL and the Tmax worked out at 105 min. It took 2.24 nM to reach half-maximal inhibition in data set [1] (IC50). Besides, in data set [2], the area under the curve AUC(0-t) was 1.69 µg·h/mL, the Cmax came to 0.689 µg/mL and the time of peak concentration (Tmax) was 15 min. In data set [3], the AUC(0-t) was determined as 0.332 µg·h/mL, the Cmax was found to be 0.125 µg/mL and the time of peak concentration (Tmax) was determined as 30 min.

The record behind these values is patent US20220056014A1, “PHENYLPYRROLIDINE COMPOUND AND USE THEREOF” (WUHAN HUMANWELL INNOVATIVE DRUG RESEARCH AND DEVELOPMENT …, priority 2018, published 2022).
